Measurements: patent publication US4921850A, “3-propenylcephem derivative” (Eisai Co., Ltd., priority 1986, dated 1990)
≈ marks a conversion by molar mass, not a printed value. Where two headings read alike, the source gives them in different places.

Columns and labels:
[1] = in vivo; details: read-out: values of acute toxicity
Text: (1) Acute toxicity in mouse:
The compounds according to this invention dissolved in a physiological saline solution were intravenously dosed to five ICR male 6 weeks-old mouse.

[2] = test system: Kleb. pneumoniae EK-6; assay: Anti-bacterial activity (MIC), agar dilution; type: cell-based; details: Klebsiella pneumoniae, EK6, 18 h
How it was run: (§1)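 Overnight Mueller-Hinton broth cultures were diluted to about 10^6 CFU/ml and spotted onto Mueller-Hinton agar plates carrying twofold serial dilutions of antibiotic. After 18 hours at 37° C, MIC (μg/ml) was determined by agar dilution.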

[3] = test system: Staph. aureus 209-P; assay: Anti-bacterial activity (MIC), agar dilution; type: cell-based; details: Staphylococcus aureus, 209P, 18 h, Staph. aureus 209-P; agar dilution, about 10^6 CFU/ml, 18 hours, 37° C.; read-out: MIC
How it was run: as §1

[4] = test system: Ser. marcescens ES-75; assay: Anti-bacterial activity (MIC), agar dilution; type: cell-based; details: Serratia marcescens, ES75, 18 h, Ser. marcescens ES-75; agar dilution, about 10^6 CFU/ml, 18 hours, 37° C.; read-out: MIC
How it was run: as §1

[5] = test system: Escher. coli NIHJ; assay: Anti-bacterial activity (MIC), agar dilution; type: cell-based; details: Escherichia coli, 18 h, Escher. coli NIHJ; agar dilution, about 10^6 CFU/ml, 18 hours, 37° C.; read-out: MIC
How it was run: as §1

[6] = test system: Morganella morganii EP-14; assay: Anti-bacterial activity (MIC), agar dilution; type: cell-based; details: Morganella morganii, EP14, 18 h, about 10^6 CFU/ml, 37° C., read-out: MIC
How it was run: as §1

[7] = test system: Pseud. aeruginosa EP-01; assay: Anti-bacterial activity (MIC), agar dilution; type: cell-based; details: Pseudomonas aeruginosa, EP01, 18 h, Pseud. aeruginosa EP-01; agar dilution, about 10^6 CFU/ml, 18 hours, 37° C.; read-out: MIC
How it was run: as §1

[8] = intravenous, physiological saline solution, five ICR male 6 weeks-old mouse
[9] = Kleb. pneumoniae EK-6, agar dilution, about 10^6 CFU/ml, 18 hours, 37° C., read-out: MIC

NC(=O)C[N+]1(C/C=C/C2=C(C(=O)[O-])N3C(=O)[C@@H](NC(=O)/C(=N\OCF)c4nsc(N)n4)[C@H]3SC2)CCC(O)CC1 (stereo partly drawn) [Example 11, 7β-[2-(5-Amino-1,2,4-thiadiazol-3-yl)-(Z)-2-fluoromethoxyiminoacetamido]-3-[(E)-3-(1-carbamoylmethyl-4-hydroxy-1-piperidinio)-1-propen-1-yl]-3-cephem-4-carboxylate]
LD50 [1, 8]: > 2000 mg/kg | MIC [2, 9]: ≤ 0.025 mg/L | MIC [3]: 0.4 mg/L (≈ 0.668 µM) | MIC [4]: ≤ 0.025 mg/L | MIC [5]: ≤ 0.025 mg/L | MIC [6]: ≤ 0.025 mg/L | MIC [7]: 0.8 mg/L (≈ 1.34 µM)

CC12C[N+](C/C=C/C3=C(C(=O)[O-])N4C(=O)[C@@H](NC(=O)/C(=N\OCF)c5nsc(N)n5)[C@H]4SC3)(CCO1)CCO2 [Example 12, 7β-[2-(5-Amino-1,2,4-thiadiazol-3-yl)-(Z)-2-fluoromethoxyiminoacetamido]-3-[(E)-3-(5-aza-1-methyl-2,8-dioxabicyclo[3.3.1]nona-5-io)-1-propen-1-yl]-3-cephem-4-carboxylate]
LD50 [1, 8]: > 2000 mg/kg | MIC [2]: ≤ 0.025 mg/L | MIC [3]: 0.4 mg/L (≈ 0.685 µM) | MIC [4]: 0.1 mg/L (≈ 0.171 µM) | MIC [5]: 0.05 mg/L (≈ 0.0857 µM) | MIC [6]: 0.05 mg/L (≈ 0.0857 µM) | MIC [7]: 1.56 mg/L (≈ 2.67 µM)

CC[N+](CC)(C/C=C/C1=C(C(=O)[O-])N2C(=O)[C@@H](NC(=O)/C(=N\OCF)c3nsc(N)n3)[C@H]2SC1)CC(N)=O [Example 96]
LD50 [1, 8]: > 2000 mg/kg | MIC [2, 9]: ≤ 0.025 mg/L | MIC [3]: 0.2 mg/L (≈ 0.35 µM) | MIC [4]: ≤ 0.025 mg/L | MIC [5]: ≤ 0.025 mg/L | MIC [6]: ≤ 0.025 mg/L | MIC [7]: 0.8 mg/L (≈ 1.4 µM)

C[N+]1(C/C=C/C2=C(C(=O)[O-])N3C(=O)[C@@H](NC(=O)/C(=N\OCF)c4nsc(N)n4)[C@H]3SC2)CCN(C(N)=O)CC1 [Example 121, 7β-[2-(5-Amino-1,2,4-thiadiazol-3-yl)-(Z)-2-fluoromethoxyiminoacetamido]-3-[(E)-3-(1-methyl-4-carbamoyl-1-piperazinio)-1-propen-1-yl]-3-cephem-4-carboxylate]
LD50 [1, 8]: > 2000 mg/kg | MIC [2, 9]: ≤ 0.025 mg/L | MIC [3]: 0.2 mg/L (≈ 0.343 µM) | MIC [4]: 0.1 mg/L (≈ 0.171 µM) | MIC [5]: ≤ 0.025 mg/L | MIC [6]: ≤ 0.025 mg/L | MIC [7]: 0.8 mg/L (≈ 1.37 µM)

C[N+](C)(C/C=C/C1=C(C(=O)[O-])N2C(=O)[C@@H](NC(=O)/C(=N\OCC#N)c3nsc(N)n3)[C@H]2SC1)[C@@H](CO)C(N)=O [Example 145, 7β-[2-(5-Amino-1,2,4-thiadiazol-3-yl)-(Z)-2-cyanomethoxyiminoacetamido]-3-[(E)-3-[(1S-carbamoyl-2-hydroxyethyl)dimethylammonio]-1-propen-1-yl]-3-cephem-4-carboxylate]
LD50 [1, 8]: > 2000 mg/kg | MIC [2, 9]: 0.1 mg/L (≈ 0.173 µM) | MIC [3]: 0.4 mg/L (≈ 0.69 µM) | MIC [4]: 0.1 mg/L (≈ 0.173 µM) | MIC [5]: 0.2 mg/L (≈ 0.345 µM) | MIC [6]: 0.1 mg/L (≈ 0.173 µM) | MIC [7]: 1.56 mg/L (≈ 2.69 µM)

C[N@@+]1(C/C=C/C2=C(C(=O)[O-])N3C(=O)[C@@H](NC(=O)/C(=N\OCC#N)c4nsc(N)n4)[C@H]3SC2)C[C@H](O)C[C@@H]1CO [Example 146, 7β-[2-(5-Amino-1,2,4-thiadiazol-3-yl)-(Z)-2-cyanomethoxyiminoacetamido]-3-[(E)-3-(1-methyl-2R-hydroxymethyl-4R-hydroxy-1-pyrrolidinio)-1-propen-1-yl]-3-cephem-4-carboxylate]
LD50 ([1]; mouse, iv): > 2000 mg/kg | MIC [2, 9]: 0.05 mg/L (≈ 0.0864 µM) | MIC [3]: 0.4 mg/L (≈ 0.691 µM) | MIC [4]: 0.05 mg/L (≈ 0.0864 µM) | MIC [5]: 0.1 mg/L (≈ 0.173 µM) | MIC [6]: 0.05 mg/L (≈ 0.0864 µM) | MIC [7]: 1.56 mg/L (≈ 2.7 µM)

CC(=O)C[N+](C)(C)C/C=C/C1=C(C(=O)[O-])N2C(=O)[C@@H](NC(=O)/C(=N\OCC#N)c3nsc(N)n3)[C@H]2SC1 [Example 154]
LD50 [1, 8]: > 2000 mg/kg | MIC [2, 9]: 0.1 mg/L (≈ 0.182 µM) | MIC [3]: 0.4 mg/L (≈ 0.729 µM) | MIC [4]: 0.1 mg/L (≈ 0.182 µM) | MIC [5]: 0.1 mg/L (≈ 0.182 µM) | MIC [6]: 0.1 mg/L (≈ 0.182 µM) | MIC [7]: 0.8 mg/L (≈ 1.46 µM)

C[N+](C)(C/C=C/C1=C(C(=O)[O-])N2C(=O)[C@@H](NC(=O)/C(=N\OCC#N)c3nsc(N)n3)[C@H]2SC1)CC(N)=O [Example 155]
LD50 [1, 8]: > 2000 mg/kg | MIC [2, 9]: 0.05 mg/L (≈ 0.091 µM) | MIC [3]: 0.4 mg/L (≈ 0.728 µM) | MIC [4]: 0.2 mg/L (≈ 0.364 µM) | MIC [5]: 0.1 mg/L (≈ 0.182 µM) | MIC [6]: 0.1 mg/L (≈ 0.182 µM) | MIC [7]: 1.56 mg/L (≈ 2.84 µM)
